From patent US20230092890A1, “1, 3, 4-Oxadiazole derivative compounds as histone deacetylase 6 inhibitor, and the pharmaceutical composition comprising the same” (Chong Kun Dang Pharmaceutical Corp., priority 2019, published 2023)
pIC50: −log10 of the molar value.

Key:
HDAC6 human recombinant = target: T1, HDAC6 human recombinant (Homo sapiens, UniProt Q9UBN7); test: HDAC enzyme activity inhibition (in vitro), HDAC6 assay; type: biochemical; conditions: samples at 0.1, 1, 10, 100 and 1000 nM; 37° C. 60 minutes; fluorescence Ex 390, Em 460; read-out: HDAC6 IC50
T1 construct: purchased Calbiochem 382180
T1 sequence (Q9UBN7 1-1215): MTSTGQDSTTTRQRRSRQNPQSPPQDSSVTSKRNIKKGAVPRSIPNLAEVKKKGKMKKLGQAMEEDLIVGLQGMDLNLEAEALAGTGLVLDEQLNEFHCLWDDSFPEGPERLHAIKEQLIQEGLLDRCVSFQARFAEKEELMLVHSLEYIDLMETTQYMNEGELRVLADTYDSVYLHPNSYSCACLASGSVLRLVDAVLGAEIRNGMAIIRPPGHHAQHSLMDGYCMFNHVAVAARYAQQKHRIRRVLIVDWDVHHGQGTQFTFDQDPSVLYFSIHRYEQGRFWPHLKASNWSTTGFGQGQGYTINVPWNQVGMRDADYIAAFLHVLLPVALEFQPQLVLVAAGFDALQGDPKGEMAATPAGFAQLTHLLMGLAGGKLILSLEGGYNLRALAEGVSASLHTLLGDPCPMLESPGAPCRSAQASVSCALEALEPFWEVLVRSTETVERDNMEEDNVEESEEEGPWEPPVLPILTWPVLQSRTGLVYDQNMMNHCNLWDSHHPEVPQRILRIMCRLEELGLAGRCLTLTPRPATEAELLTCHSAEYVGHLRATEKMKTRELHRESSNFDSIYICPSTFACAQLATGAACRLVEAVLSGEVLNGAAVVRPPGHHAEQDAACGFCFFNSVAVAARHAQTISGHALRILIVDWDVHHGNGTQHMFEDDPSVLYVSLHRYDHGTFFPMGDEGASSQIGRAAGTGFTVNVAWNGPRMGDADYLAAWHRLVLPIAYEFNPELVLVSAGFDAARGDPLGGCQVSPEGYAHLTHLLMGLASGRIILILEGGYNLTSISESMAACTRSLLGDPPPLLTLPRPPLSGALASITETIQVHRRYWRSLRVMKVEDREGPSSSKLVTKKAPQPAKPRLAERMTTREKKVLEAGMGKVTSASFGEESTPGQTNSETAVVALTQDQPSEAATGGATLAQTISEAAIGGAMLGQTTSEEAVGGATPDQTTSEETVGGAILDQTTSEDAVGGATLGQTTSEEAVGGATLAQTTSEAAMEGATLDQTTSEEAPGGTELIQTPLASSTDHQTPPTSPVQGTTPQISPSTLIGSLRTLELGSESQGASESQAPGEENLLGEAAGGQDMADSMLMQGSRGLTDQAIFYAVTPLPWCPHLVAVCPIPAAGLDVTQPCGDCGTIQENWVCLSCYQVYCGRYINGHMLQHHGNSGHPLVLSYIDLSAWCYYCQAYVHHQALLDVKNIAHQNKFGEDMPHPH
Experimental: A HDAC enzyme inhibitory capacity of a test material was measured by using HDAC1 Fluorimetric Drug Discovery Assay Kit (Enzolifesciences: BML-AK511) and HDAC6 human recombinant (Calbiochem: 382180). For a HDAC1 assay, samples were treated at a concentration of 100, 1000 and 10000 nM. […] After the above sample treatment, a reaction was continued at 37° C. for 60 minutes, then treated with a developer, and then subjected to a reaction at 37° C. for 30 minutes, after which fluorescence intensity (Ex 390, Em 460) was measured by using FlexStatin3 (Molecular device).

HDAC1 = target: T2, HDAC1 (Homo sapiens, UniProt Q13547); test: HDAC enzyme activity inhibition (in vitro), HDAC1 Fluorimetric Drug Discovery Assay Kit; type: biochemical; conditions: samples at 100, 1000 and 10000 nM; 37° C. 60 minutes; fluorescence Ex 390, Em 460; read-out: HDAC1 IC50
T2 construct: purchased Enzolifesciences BML-AK511
T2 sequence (Q13547 whole entry): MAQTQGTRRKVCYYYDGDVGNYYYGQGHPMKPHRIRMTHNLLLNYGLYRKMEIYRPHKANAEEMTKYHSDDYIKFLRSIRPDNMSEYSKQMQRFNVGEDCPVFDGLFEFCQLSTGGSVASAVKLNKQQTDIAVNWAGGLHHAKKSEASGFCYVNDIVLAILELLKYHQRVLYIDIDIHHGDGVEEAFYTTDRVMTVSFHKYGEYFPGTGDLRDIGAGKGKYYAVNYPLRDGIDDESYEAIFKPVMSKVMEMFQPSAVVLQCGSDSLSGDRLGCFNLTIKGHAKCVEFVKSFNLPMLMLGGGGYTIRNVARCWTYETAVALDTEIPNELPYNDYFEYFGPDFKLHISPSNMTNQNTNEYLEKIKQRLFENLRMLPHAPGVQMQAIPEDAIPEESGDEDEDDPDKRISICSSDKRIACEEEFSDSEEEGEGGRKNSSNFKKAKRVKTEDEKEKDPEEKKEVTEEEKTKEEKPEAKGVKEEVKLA
Experimental: <Experimental Example 1> Identification of HDAC Enzyme Activity Inhibition (In Vitro)
A selective HDAC6 inhibitor is important for selectivity of HDAC1 inhibition, which is a cause of side effects, and thus HDAC1/6 enzyme selectivity and cell selectivity (HDAC1: histone acetylation/HDAC6: tubulin acetylation) were identified.
A HDAC enzyme inhibitory capacity of a test material was measured by using HDAC1 Fluorimetric Drug Discovery Assay Kit (Enzolifesciences: BML-AK511) and HDAC6 human recombinant (Calbiochem: 382180). For a HDAC1 assay, samples were treated at a concentration of 100, 1000 and 10000 nM. For a HDAC6 assay, samples were treated at a concentration of 0.1, 1, 10, 100 and 1000 nM. After the above sample treatment, a reaction was continued at 37° C. for 60 minutes, then treated with a developer, and then subjected to a reaction at 37° C. for 30 minutes, after which fluorescence intensity (Ex 390, Em 460) was measured by using FlexStatin3 (Molecular device).

| Compound | pIC50 (HDAC6 human recombinant) | pIC50 (HDAC1) |
| --- | --- | --- |
| O=c1n(Cc2ccc(-c3nnc(C(F)F)o3)cc2F)c2ccccc2n1C1CCS(=O)(=O)CC1 [Compound 35, 1-(4-(5-(difluoromethyl)-1,3,4-oxadiazole-2-yl)-2-fluorobenzyl)-3-(1,1-dioxydotetrahydro-2H-thiopyran-4-yl)-1,3-dihydro-2H-benzo[d]imidazole-2-one] | 6.69 | < 5.00 |
| CN(C)CCn1c(=O)n(Cc2ccc(-c3nnc(C(F)F)o3)cc2F)c2ccccc21 [Compound 36, 1-(4-(5-(difluoromethyl)-1,3,4-oxadiazole-2-yl)-2-fluorobenzyl)-3-(2-(dimethylamino)ethyl)-1,3-dihydro-2H-benzo[d]imidazole-2-one] | 6.88 | < 5.00 |
| O=c1n(Cc2ccc(-c3nnc(C(F)F)o3)cc2F)c2ccccc2n1C1COC1 [Compound 37, 1-(4-(5-(difluoromethyl)-1,3,4-oxadiazole-2-yl)-2-fluorobenzyl)-3-(oxetan-3-yl)-1,3-dihydro-2H-benzo[d]imidazole-2-one] | 6.80 | < 5.00 |
| O=c1n(Cc2ccc(-c3nnc(C(F)F)o3)cc2F)c2ccccc2n1CC1CCN(C2COC2)CC1 [Compound 39, 1-(4-(5-(difluoromethyl)-1,3,4-oxadiazole-2-yl)-2-fluorobenzyl)-3-((1-(oxetan-3-yl)piperidine-4-yl)methyl)-1,3-dihydro-2H-benzo[d]imidazole-2-one] | 6.78 | < 5.00 |
| CCN1CCC(n2c(=O)n(Cc3ccc(-c4nnc(C(F)F)o4)cn3)c3ccc(F)cc32)CC1 [Compound 40, 1-((5-(5-(difluoromethyl)-1,3,4-oxadiazole-2-yl)pyridine-2-yl)methyl)-3-(1-ethylpiperidine-4-yl)-5-fluoro-1,3-dihydro-2H-benzo[d]imidazole-2-one] | 6.81 | < 5.00 |
| O=c1n(Cc2ccc(-c3nnc(C(F)F)o3)cn2)c2ccc(F)cc2n1C1CCN(C2COC2)CC1 [Compound 41, 1-((5-(5-(difluoromethyl)-1,3,4-oxadiazole-2-yl)pyridine-2-yl)methyl)-5-fluoro-3-(1-(oxetan-3-yl)piperidine-4-yl)-1,3-dihydro-2H-benzo[d]imidazole-2-one] | 7.04 | < 5.00 |
| CC(=O)N1CCC(n2c(=O)n(Cc3ccc(-c4nnc(C(F)F)o4)cn3)c3ccc(F)cc32)CC1 [Compound 42, 3-(1-acetylpiperidine-4-yl)-1-((5-(5-(difluoromethyl)-1,3,4-oxadiazole-2-yl)pyridine-2-yl)methyl)-5-fluoro-1,3-dihydro-2H-benzo[d]imidazole-2-one] | 6.97 | < 5.00 |
| CN1CCC(n2c(=O)n(Cc3ccc(-c4nnc(C(F)F)o4)cn3)c3ccc(F)cc32)CC1 [Compound 43, 1-((5-(5-(difluoromethyl)-1,3,4-oxadiazole-2-yl)pyridine-2-yl)methyl)-5-fluoro-3-(1-methylpiperidine-4-yl)-1,3-dihydro-2H-benzo[d]imidazole-2-one] | 6.92 | < 5.00 |
| O=c1n(Cc2ccc(-c3nnc(C(F)F)o3)cn2)c2ccc(F)cc2n1C1CCN(C2CCOCC2)CC1 [Compound 44, 1-((5-(5-(difluoromethyl)-1,3,4-oxadiazole-2-yl)pyridine-2-yl)methyl)-5-fluoro-3-(1-(tetrahydro-2H-pyran-4-yl)piperidine-4-yl)-1,3-dihydro-2H-benzo[d]imidazole-2-one] | 7.12 | < 5.00 |
| O=c1n(Cc2ccc(-c3nnc(C(F)F)o3)cn2)c2ccc(F)cc2n1C1CCN(C2CCC2)CC1 [Compound 45, 3-(1-cyclobutylpiperidine-4-yl)-1-((5-(5-(difluoromethyl)-1,3,4-oxadiazole-2-yl)pyridine-2-yl)methyl)-5-fluoro-1,3-dihydro-2H-benzo[d]imidazole-2-one] | 6.92 | < 5.00 |
| CC(C)N1CCC(n2c(=O)n(Cc3ccc(-c4nnc(C(F)F)o4)cn3)c3ccc(F)cc32)CC1 [Compound 46, 1-((5-(5-(difluoromethyl)-1,3,4-oxadiazole-2-yl)pyridine-2-yl)methyl)-5-fluoro-3-(1-isopropylpiperidine-4-yl)-1,3-dihydro-2H-benzo[d]imidazole-2-one] | 6.99 | < 5.00 |
| O=c1n(Cc2ccc(-c3nnc(C(F)F)o3)cn2)c2ccc(F)cc2n1C1CCN(C2CCCCC2)CC1 [Compound 47, 3-(1-cyclohexylpiperidine-4-yl)-1-((5-(5-(difluoromethyl)-1,3,4-oxadiazole-2-yl)pyridine-2-yl)methyl)-5-fluoro-1,3-dihydro-2H-benzo[d]imidazole-2-one] | 6.90 | < 5.00 |
| CN1CCC(n2c(=O)n(Cc3ccc(-c4nnc(C(F)F)o4)cn3)c3cc(F)ccc32)CC1 [Compound 48, 3-((5-(5-(difluoromethyl)-1,3,4-oxadiazole-2-yl)pyridine-2-yl)methyl)-5-fluoro-1-(1-methylpiperidine-4-yl)-1,3-dihydro-2H-benzo[d]imidazole-2-one] | 7.66 | < 5.00 |
| O=c1n(Cc2ccc(-c3nnc(C(F)F)o3)cn2)c2cc(F)ccc2n1C1CCN(C2CC3(COC3)C2)CC1 [Compound 49, 1-(1-(2-oxaspiro[3.3]heptane-6-yl)piperidine-4-yl)-3-((5-(5-(difluoromethyl)-1,3,4-oxadiazole-2-yl)pyridine-2-yl)methyl)-5-fluoro-1,3-dihydro-2H-benzo[d]imidazole-2-one] | 7.46 | < 5.00 |
| CCN1CCC(n2c(=O)n(Cc3ccc(-c4nnc(C(F)F)o4)cn3)c3cc(F)ccc32)CC1 [Compound 50, 3-((5-(5-(difluoromethyl)-1,3,4-oxadiazole-2-yl)pyridine-2-yl)methyl)-1-(1-ethylpiperidine-4-yl)-5-fluoro-1,3-dihydro-2H-benzo[d]imidazole-2-one] | 7.41 | < 5.00 |
| CC(C)N1CCC(n2c(=O)n(Cc3ccc(-c4nnc(C(F)F)o4)cn3)c3cc(F)ccc32)CC1 [Compound 51, 3-((5-(5-(difluoromethyl)-1,3,4-oxadiazole-2-yl)pyridine-2-yl)methyl)-5-fluoro-1-(1-isopropylpiperidine-4-yl)-1,3-dihydro-2H-benzo[d]imidazole-2-one] | 7.49 | < 5.00 |
| O=c1n(Cc2ccc(-c3nnc(C(F)F)o3)cn2)c2cc(F)ccc2n1C1CCN(C2COC2)CC1 [Compound 53, 3-((5-(5-(difluoromethyl)-1,3,4-oxadiazole-2-yl)pyridine-2-yl)methyl)-5-fluoro-1-(1-(oxetan-3-yl)piperidine-4-yl)-1,3-dihydro-2H-benzo[d]imidazole-2-one] | 7.43 | < 5.00 |
| O=c1n(Cc2ccc(-c3nnc(C(F)F)o3)cn2)c2cc(F)ccc2n1C1CCN(C2CCCCC2)CC1 [Compound 54, 1-(1-cyclohexylpiperidine-4-yl)-3-((5-(5-(difluoromethyl)-1,3,4-oxadiazole-2-yl)pyridine-2-yl)methyl)-5-fluoro-1,3-dihydro-2H-benzo[d]imidazole-2-one] | 7.41 | < 5.00 |
